This is an account of results in patent US6716879B2, “Methods for anti-tumor therapy” (Compass Pharmaceuticals, LLC, priority 2000, dated 2004).

Test [1] has as its system Myxofibrosarcoma/thigh patient tumor cells. Put plainly: Alamar Blue anti-tumor screen, IC50 on patient tumor cells, tumor #3. Particulars: Homo sapiens, triplicate. It is filed as cell-based. An excerpt: (§1) Excess tissue specimens obtained from patients undergoing therapeutic surgical resections were freshly obtained at the time of surgery and a small portion of the specimen was sent for pathological testing. For diagnosis and grading of tissue samples (ie: prior to processing), hematoxylin and eosin stained tissue sections were examined by a pathologist. If the diagnosis and grading of the tissue concurred with the determination made by the surgical pathologist that provided the tissue, then the tissue was used in the screen. If there was no agreement, then two additional pathologists served as referees. If no consensus was reached, then the tissue was not used. […]
(§2) After tissue processing, the relative purity of the resulting cell suspension was determined by cytological examination after fixation and Papanicolaou staining. […]
(§3) Cell preparations that passed histological and cytological examination for diagnosis, grading, and cell purity were thawed at 37° C. and resuspended in tissue culture medium designed to maintain the cells during the incubation period. The live and dead cells were counted and the cells were diluted in culture medium to 1.0×10^3 live cells/test well for tumor cells and 3.3×10^3 live cells/test well for normal cells. […]
(§4) The kinetics of cellular re-dox reactions were subsequently measured at various times, for example at 3 hours, 3 days, and 5 days post-dye addition. […]

Test [2] concerns Fibrohistiocytic Sarcoma/lung patient tumor cells. Put plainly: Alamar Blue anti-tumor screen, IC50 on patient tumor cells, tumor #2. Particulars: Homo sapiens, triplicate. It is filed as cell-based.
Source text: as §1, §2, §3, §4

The test system of test [3] is Leiomyosarcoma/abdominal patient tumor cells. Put plainly: Alamar Blue anti-tumor screen, IC50 on patient tumor cells, tumor #1. Type of test: cell-based, human. Particulars: triplicate.
Source text: as §1, §2, §3, §4

In the next test the test system is patient normal cells. As to the kind of experiment: Anti-tumor screen 2 at 10 μM on patient normal cells. Particulars: Homo sapiens, screen 2, 10 μM, in duplicate. It is filed as cell-based.
Source text: as §1, §2, §3, §4

A further test relates to patient tumor cells. As to the kind of experiment: Anti-tumor screen 1 and 2 at 10 μM on patient tumor cells. Particulars: for inhibition at 10 µM: Homo sapiens. It is filed as cell-based, human.
Source text: (§5) Excess tissue specimens obtained from patients undergoing therapeutic surgical resections were freshly obtained at the time of surgery and a small portion of the specimen was sent for pathological testing. For diagnosis and grading of tissue samples (ie: prior to processing), hematoxylin and eosin stained tissue sections were examined by a pathologist. If the diagnosis and grading of the tissue concurred with the determination made by the surgical pathologist that provided the tissue, then the tissue was used in the screen. If there was no agreement, then two additional pathologists served as referees. If no consensus was reached, then the tissue was not used.
(§6) The remaining tissue was used to prepare cell suspensions. The tissue was initially treated enzymatically via standard methods until only undigested material remained. The digested cell suspension was filtered through one or more screens of between 40 micron and 100 micron porosity. The resulting cell suspension was further purified via isokinetic density centrifugation.
(§7) Additional normal cells were removed from the cell suspension by negative immunoselection with a combination of monoclonal antibodies linked to magnetic beads (Dynal) that were used according to the manufacturers' instructions. The remaining cells were placed into appropriate medium, frozen down in 1.0 mL aliquots, and stored until use.
as §2, §3, §4

Test [4] deals with Gastrointestinal stromal tumor (sarcoma) patient tumor cells. Put plainly: Alamar Blue anti-tumor screen, IC50 on patient tumor cells, tumor #6. It is filed as cell-based. Particulars: Homo sapiens, triplicate.
Source text: as §1, §2, §3, §4

Test [5] relates to Ovarian patient tumor cells. As to the kind of experiment: Alamar Blue anti-tumor screen, IC50 on patient tumor cells, tumor #7. It is filed as cell-based. Particulars: Homo sapiens, triplicate.
Source text: as §1, §2, §3, §4

For test [6], the system named is Gastrointestinal stromal tumor (sarcoma) patient tumor cells. As to the kind of experiment: Alamar Blue anti-tumor screen, IC50 on patient tumor cells, tumor #5. It is filed as cell-based. Particulars: Homo sapiens, triplicate.
Source text: as §1, §2, §3, §4

For test [7], the system named is Leiomyosarcoma/pelvic patient tumor cells. As to the kind of experiment: Alamar Blue anti-tumor screen, IC50 on patient tumor cells, tumor #4. Type of test: cell-based, human.
Source text: as §5, §6, §7
After tissue processing, the relative purity of the resulting cell suspension was determined by cytological examination after fixation and Papanicolaou staining. Only those cell preparations greater than 80% tumor cells were used for testing of candidate compounds. If there was any doubt about the percentage of tumor cells in the cell preparation, additional pathologists served as referees to make a determination.
Cell preparations that passed histological and cytological examination for diagnosis, grading, and cell purity were thawed at 37° C. and resuspended in tissue culture medium designed to maintain the cells during the incubation period. The live and dead cells were counted and the cells were diluted in culture medium to 1.0×10^3 live cells/test well for tumor cells and 3.3×10^3 live cells/test well for normal cells.
The cells were added to microtiter plates and incubated at 37° C. overnight with 10 μM of the candidate compounds that were added at 1/10th the volume of the cell suspension. Alamar Blue (Accumed International, Westlake Ohio) was then added to the cells at 1/10 the volume of the well, and the cells were further incubated at 37° C. for various times. Alamar Blue dye measures cellular re-dox reactions (ie: cellular respiration) whereby a spectral shift occurs upon reduction of the dye. (Excitation 530 nm; emission 590 nm).
The kinetics of cellular re-dox reactions were subsequently measured at various times, for example at 3 hours, 3 days, and 5 days post-dye addition. These measurements, in comparison with control cells (untreated with compound) and media controls (test wells without cells) provide the percent inhibition of cellular mitochondrial respiration as a result of candidate compound treatment, as well as IC50 determinations.
In a blinded fashion, approximately 10,000 compounds were tested at a rate of 1,000-4,000 compounds per run set against various tumor types. The anti-tumor screen utilized was composed of three tiers as follows. In screen 1, patient tumor cells were tested in singles, with candidate compounds at a concentration of 10 μM. […]

The structures appear in SMILES notation. Where two headings read alike, the source gives them in different places. Where only a bound is given, the exact number is not on record here.

For the molecule `O=C(Nc1ccc(Cl)cc1)c1cc(Cl)ccc1NS(=O)(=O)c1ccc(Cl)cc1` [Compound 1, 5-chloro-2-{[(4-chlorophenyl)sulfonyl]amino}-N-(4-chlorophenyl)benzamide], the IC50 turned out to be 49 nM in test [1]; 30 nM in [2]; 170 nM in test [3] (Homo sapiens); 150 nM in test [3]; 531 nM in test [4]; 35 nM in test [5]. The IC50 amounted to 2400 nM in test [6]; 339 nM in test [7] (Homo sapiens, Tumor #4, Leiomyosarcoma/pelvic, patient tumor cells, triplicate (Table 2), read-out: IC50); 410 nM in test [7] (Tumor #4, Leiomyosarcoma/pelvic, patient tumor cells, triplicate (Table 2), read-out: IC50). For the same molecule, the inhibition at 10 µM with patient normal cells was not above 20%; in the test on patient tumor cells (screen 1, 10 μM, patient tumor cells, criterion: at least 80% inhibition and/or two standard deviations from the mean of the plate samples, read-out: inhibition (compared to cell and media controls)), not below 80%; in the test with patient tumor cells (screen 2, 10 μM, in duplicate, patient tumors, read-out: inhibition on tumor cells), not below 80%. Moreover, the “selectivity against tumor cells” value in the test on patient tumor cells (three-tier anti-tumor screen, tumor versus normal patient cells, 10 μM) is listed as “selectivity against tumor cells”.
With `O=C(Nc1ccc(Cl)cc1)c1cc(Br)ccc1NS(=O)(=O)c1ccc(Cl)cc1` [Compound 2, 5-bromo-2-{[(4-chlorophenyl)sulfonyl]amino}-N-(4-chlorophenyl)-benzamide], in test [7] (Homo sapiens), the IC50 was 44.7 nM.
On to `O=C(Nc1ccc(Cl)cc1)c1cc(Br)ccc1NS(=O)(=O)c1ccc(Cl)c([N+](=O)[O-])c1` [Compound 3, (5-bromo-2-{[(4-chloro-3-nitrophenyl)sulfonyl]amino}phenyl)-N-(4-chlorophenyl)carboxamide], for which the IC50 in [7] (Homo sapiens) was 118 nM.
With `O=C(Nc1ccc(Cl)cc1)c1cc2ccccc2cc1NS(=O)(=O)c1ccc(Cl)cc1` [Compound 5, N-(4-chlorophenyl)(3-{[(4-chlorophenyl)sulfonyl]amino}(2-naphthyl))-carboxamide], the IC50 in test [7] (Homo sapiens, Tumor #4 of Table 2, Leiomyosarcoma/pelvic, tested as in Example 3 (Table 3), read-out: IC50) amounted to 209 nM.
